According to patent US10590118B2, “Bicyclic heterocyclic derivatives as bromodomain inhibitors” (Orion Corporation, priority 2014, dated 2020):
Structures can show the parent of a compound that is named as a salt.

Molecular target: T1, Bet bromodomain protein (BRD4) (Homo sapiens, UniProt O60885)
T1 construct: made in house
Experiment: Bet bromodomain TR-FRET assay
Type: binding
Details: 300 nM acetyl histone peptide substrate, results given as Group A/B/C
Experimental: In-Vitro Biochemical Data of bicyclic heterocyclic derivatives in time-resolved fluorescence resonance energy transfer (TR-FRET) assay.
The Bet brommodomain TR-FRET assay has been used to identify compounds that bind to bet bromodomain and prevent its interaction with acetylated histone peptides.
In the assay, optimized concentration of in-house Bet bromodomain protein (BRD4) and 300 nM of acetyl histone peptide substrate were diluted in assay buffer (50 mM HEPES, pH: 7.5, 50 mM NaCl, 500 μM CHAPS) and were added to the positive control and test control wells in a 384 well plate. Substrate control wells have 300 nM of acetyl histone peptide substrate diluted in assay buffer. Buffer blank wells were added with assay buffer. The reaction mixture was allowed for incubation at room temperature for 30 mins. Stock solutions of test compounds at 20 mM DMSO are prepared. Compounds are serially diluted and added to the test wells in 384-well polypropylene plates. The reaction mixture was further incubated for 30 mins at room temperature on a plate shaker. 2 nM of Europium labeled streptavidn and 10 nM of XL-665 labeled antibody diluted in detection buffer (50 mM HEPES, pH: 7.5, 50 mM NaCl, 500 μM CHAPS and 800 mM KF) were added to all the wells excluding the buffer blank wells. The reaction plate was incubated for additional 30 mins at room temperature on plate shaker. The plate was read in Perkin Elmer WALLAC 1420 Multilabel Counter Victor 3 (Ex: 340 nm Em: 615 and 665 nm). The amount of displacement of the peptide was measured as ratio of specific 665 nm energy transfer signal to 615 nm signals. The compounds IC50 was determined by fitting the dose response data to sigmoid curve fitting equation using Graph Pad Prism software V5.

COc1cc2c(cc1-c1c(C)noc1C)OCC(=O)N2C(C)c1cccnc1 (single isomer, unassigned) [Compound 25, 7-(3,5-dimethytisoxazol-4-yl)-6-methoxy-4-(1-(pyridin-3-yl)ethyl)-2H-benzo[b][1,4]oxazin-3(4H)-one]
IC50: 1000 to 3000 nM

Cc1noc(C)c1-c1cc2ccc(=O)n(Cc3ccccn3)c2cc1OCCN1CCOCC1 [Compound 75, 6-(3,5-dimethylisoxazol-4-yl)-7-(2-morpholinoethoxy)-1-(pyridin-2-ylmethyl)quinolin-2(1H)-one]
IC50: 1000 to 3000 nM

COc1cc2c(cc1Nc1c(C)noc1C)OCC(=O)N2Cc1ccc(Cl)cc1 [Compound 95, 4-(4-chlorobenzyl)-7-((3,5-dimethylisoxazol-4-yl)amino)-6-methoxy-2H-benzo[b][1,4]oxazin-3(4H)-one]
IC50: > 3000 nM

COc1cc2c(cc1NC(=O)c1c(C)noc1C)OCC(=O)N2Cc1ccc(Cl)cc1 [Compound 94, N-(4-(4-chlorobenzyl)-6-methoxy-3-oxo-3,4-dihydro-2H-benzo [b][1,4]oxazin-7-yl)-3,5-dimethylisoxazole-4-carboxamide]
IC50: > 3000 nM

COc1cc2c(cc1-c1c(C)n[nH]c1C)OCC(=O)N2Cc1ccc(Cl)cc1 [Compound 65, 4-(4-chlorobenzyl)-7-(3,5-dimethyl-1H-pyrazol-4-yl)-6-methoxy-2H-benzo[b][1,4]oxazin-3(4H)-one]
IC50: ≤ 1000 nM

COc1cc2c(cc1-c1c(C)noc1C)cc(C(O)(O)C(F)(F)F)c(=O)n2Cc1ccccn1 [Compound 104, 6-(3,5-dimethylisoxazol-4-yl)-7-methoxy-1-(pyridin-2-ylmethyl)-3-(2,2,2-trifluoro-1,1-dihydroxyethyl)quinolin-2(1H)-one]
IC50: ≤ 1000 nM

COc1cc2c(cc1-c1c(C)noc1C)cc(C)c(=O)n2CCc1ccc(Cl)cc1 [Compound 59, 1-(4-chlorophenethyl)-6-(3,5-dimethylisoxazol-4-yl)-7-methoxy-3-methylquinolin-2(1H)-one]
IC50: ≤ 1000 nM

COc1cc2c(ccc(=O)n2Cc2cccnc2)cc1-c1c(C)noc1C [Compound 36, 6-(3,5-dimethylisoxazol-4-yl)-7-methoxy-1-(pyridin-3-ylmethyl)quinolin-2(1H)-one]
IC50: ≤ 1000 nM

COc1cc2c(ccc(=O)n2C(C)c2ccccn2)cc1-c1c(C)noc1C (centres unmarked) [Compound 40, 6-(3,5-dimethytisoxazol-4-yl)-7-methoxy-1-(1-(pyridin-2-yl)ethyl)quinolin-2(1H)-one]
IC50: ≤ 1000 nM

COc1cc2c(ccc(=O)n2S(=O)(=O)c2ccc(Cl)cc2)cc1-c1c(C)noc1C [Compound 14, 1-((4-chlorophenyl)sulfonyl)-6-(3,5-dimethylisoxazol-4-yl)-7-methoxyquinolin-2(1H)-one]
IC50: > 3000 nM

Cc1noc(C)c1-c1cc2ccc(=O)n(Cc3ccccn3)c2cc1O [Compound 72, 6-(3,5-dimethylisoxazol-4-yl)-7-hydroxy-1-(pyridin-2-ylmethyl)quinolin-2(1H)-one]
IC50: ≤ 1000 nM

COc1cc2c(ccc(=O)n2Cc2ncccn2)cc1-c1c(C)noc1C [Compound 43, 6-(3,5-dimethylisoxazol-4-yl)-7-methoxy-1-(pyrimidin-2-ylmethyl)quinolin-2(1H)-one]
IC50: ≤ 1000 nM

COc1cc2c(cc1-c1c(C)noc1C)OCCN2Cc1ccc(Cl)cc1 [Compound 1, 4-(4-chlorobenzyl)-7-(3,5-dimethylisoxazol-4-yl)-6-methoxy-3,4-dihydro-2H-benzo[b][1,4]oxazine]
IC50: ≤ 1000 nM

Cc1noc(C)c1-c1cc2ccc(=O)n(Cc3ccccn3)c2cc1OCc1ccncc1 [Compound 83, 6-(3,5-dimethylisoxazol-4-yl)-1-(pyridin-2-ylmethyl)-7-(pyridin-4-ylmethoxy)quinolin-2(1H)-one]
IC50: ≤ 1000 nM

COc1cc2c(ccc(=O)n2Cc2nccs2)cc1-c1c(C)noc1C [Compound 39, 6-(3,5-dimethylisoxazol-4-yl)-7-methoxy-1-(thiazol-2-ylmethyl)quinolin-2(1H)-one]
IC50: ≤ 1000 nM

COc1cc2c(ccc(=O)n2Cc2ccccn2)cc1-c1c(C)n[nH]c1C [Compound 66, 6-(3,5-dimethyl-1H-pyrazol-4-yl)-7-methoxy-1-(pyridin-2-ylmethyl)quinolin-2(1H)-one]
IC50: ≤ 1000 nM

COc1ccc(CN2C(=O)COc3cc(-c4c(C)noc4C)c(OC)cc32)cn1 [Compound 26, 7-(3,5-dimethylisoxazol-4-yl)-6-methoxy-4-((6-methoxypyridin-3-yl)methyl)-2H-benzo[b][1,4]oxazin-3(4H)-one]
IC50: ≤ 1000 nM

COc1cc2c(cc1-c1c(C)noc1C)ncc(=O)n2Cc1ccc(Cl)cc1 [Compound 4, 1-(4-chlorobenzyl)-6-(3,5-dimethylisoxazol-4-yl)-7-methoxyquinoxalin-2(1H)-one]
IC50: ≤ 1000 nM

COc1cc2c(ccc(=O)n2Cc2ccc(Cl)cn2)cc1-c1c(C)noc1C [Compound 37, 1-((5-chloropyridin-2-yl)methyl)-6-(3,5-dimethylisoxazol-4-yl)-7-methoxyquinolin-2(1H)-one]
IC50: ≤ 1000 nM

Cc1noc(C)c1-c1cc2ccc(=O)n(Cc3ccccn3)c2cc1OCCN1CCNCC1 [Compound 82, 6-(3,5-dimethylisoxazol-4-yl)-7-(2-(piperazin-1-yl)ethoxy)-1-(pyridin-2-ylmethyl)quinolin-2(1H)-one]
IC50: 1000 to 3000 nM

Cc1noc(C)c1-c1cc2ccc(=O)n(Cc3ccccn3)c2cc1OCC(F)(F)F [Compound 74, 6-(3,5-dimethylisoxazol-4-yl)-1-(pyridin-2-ylmethyl)-7-(2,2,2-trifluoroethoxy)quinolin-2(1H)-one]
IC50: ≤ 1000 nM

COc1cc2c(ccc(=O)n2Cc2ccc(Cl)cc2)cc1-c1c(C)noc1C [Compound 56, 1-(4-chlorobenzyl)-6-(3,5-dimethylisoxazol-4-yl)-7-methoxyquinolin-2(1H)-one]
IC50: ≤ 1000 nM

Cc1noc(C)c1-c1cc2ccc(=O)n(Cc3ccccn3)c2cc1OC1CCNCC1 [Compound 86, 6-(3,5-dimethylisoxazol-4-yl)-7-(piperidin-4-yloxy)-1-(pyridin-2-ylmethyl)quinolin-2(1H)-one]
IC50: > 3000 nM

Cc1noc(C)c1-c1cc2ccc(=O)n(Cc3ccccn3)c2cc1OCCC1CCNC1 (centres unmarked) [Compound 89, 6-(3,5-dimethylisoxazol-4-yl)-1-(pyridin-2-ylmethyl)-7-(2-(pyrrolidin-3-yl)ethoxy)quinolin-2(1H)-one hydrochloride]
IC50: ≤ 1000 nM

COc1cc2c(cc1-c1c(C)noc1C)OCC(=O)N2Cc1ccc(Cl)cn1 [Compound 28, 4-((5-chloropyridin-2-yl)methyl)-7-(3,5-dimethylisoxazol-4-yl)-6-methoxy-2H-benzo[b][1,4]oxazin-3(4H)-one]
IC50: ≤ 1000 nM

COc1cc2c(cc1-c1c(C)noc1C)cc(C(O)C(F)(F)F)c(=O)n2Cc1ccccn1 (single isomer, unassigned) [Compound 102, 6-(3,5-dimethylisoxazol-4-yl)-7-methoxy-1-(pyridin-2-ylmethyl)-3-(2,2,2-trifluoro-1-hydroxyethyl)quinolin-2(1H)-one]
IC50: ≤ 1000 nM

Cc1noc(C)c1-c1cc2ccc(=O)n(Cc3ccccn3)c2cc1OCCN1CCCC1 [Compound 81, 6-(3,5-dimethylisoxazol-4-yl)-1-(pyridin-2-ylmethyl)-7-(2-(pyrrolidin-1-yl)ethoxy)quinolin-2(1H)-one]
IC50: 1000 to 3000 nM

COc1cc2c(cc1-c1c(C)noc1C)OCCN2C(C)c1ccc(Cl)cc1 (centres unmarked) [Compound 6, 4-(1-(4-chlorophenyl)ethyl)-7-(3,5-dimethylisoxazol-4-yl)-6-methoxy-3,4-dihydro-2H-benzo[b][1,4]oxazine]
IC50: > 3000 nM

COc1cc2c(cc1-c1c(C)noc1C)OCC(=O)N2C(C)c1ccccn1 (centres unmarked) [Compound 31]
IC50: 1000 to 3000 nM

COc1cc2c(ccc(=O)n2Cc2ncccc2F)cc1-c1c(C)noc1C [Compound 9, 6-(3,5-dimethylisoxazol-4-yl)-1-((3-fluoropyridin-2-yl)methyl)-7-methoxyquinolin-2(1H)-one]
IC50: ≤ 1000 nM

COc1cc2c(cc1-c1c(C)noc1C)cc(C1CCCCC1)c(=O)n2Cc1ccccn1 [Compound 68, 3-cyclohexyl-6-(3,5-dimethylisoxazol-4-yl)-7-methoxy-1-(pyridin-2-ylmethyl)quinolin-2(1H)-one]
IC50: ≤ 1000 nM

COc1cc2c(ccc(=O)n2C(=O)c2ccc(Cl)cc2)cc1-c1c(C)noc1C [Compound 15, 1-(4-chlorobenzoyl)-6-(3,5-dimethylisoxazol-4-yl)-7-methoxyquinolin-2(1H)-one]
IC50: > 3000 nM

COc1cc2c(ccc(=O)n2Cc2ccc(-c3cnn(C)c3)cn2)cc1-c1c(C)noc1C [Compound 98, 6-(3,5-dimethylisoxazol-4-yl)-7-methoxy-1-((5-(1-methyl-1H-pyrazol-4-yl)pyridin-2-yl)methyl)quinolin-2(1H)-one]
IC50: ≤ 1000 nM

COc1cc2c(ccc(=O)n2Cc2ccccn2)cc1-c1conc1C [Compound 64, 7-methoxy-6-(3-methylisoxazol-4-yl)-1-(pyridin-2-ylmethyl)quinolin-2(1H)-one]
IC50: ≤ 1000 nM

COc1cc2c(ccc(=O)n2Cc2ccccn2)cc1-c1c(C2CC2)noc1C [Compound 62, 6-(3-cyclopropyl-5-methylisoxazol-4-yl)-7-methoxy-1-(pyridin-2-ylmethyl)quinolin-2(1H)-one]
IC50: ≤ 1000 nM
